Measured values from PubChem BioAssay AID342 (DTP/NCI, 2004).
“And” between values parts separate entries of the source, which are not always exact repeats. Identical values can stand only once.

System: Swiss mice, Sarcoma 180 sc, mean tumor weight T/C
Assay: NCI In Vivo Anticancer Drug Screen. Data for tumor model Sarcoma 180 (subcutaneous) in Swiss mice
Details: endpoint: mean tumor weight, higher = larger tumour
Summary of the method: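 Readout is the ratio of treated-group measurement to vehicle-control measurement (T/C), based on survival or tumor size in mice carrying transplanted tumors.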

[1] = dose: 333.0 mg/kg/injection, schedule: Q01DX007 (ip), vehicle: other
[2] = dose: 500.0 mg/kg/injection, schedule: Q01DX007 (ip), vehicle: other
[3] = dose: 750.0 mg/kg/injection, schedule: Q01DX007 (ip), vehicle: other
[4] = dose: 50.0 mg/kg/injection, schedule: Q01DX007 (ip), vehicle: other
[5] = dose: 200.0 mg/kg/injection, schedule: Q01DX007 (ip), vehicle: other

Which results are given for `O=c1[nH]cc(F)c(=O)[nH]1`?
T/C (dose: 3.12 mg/kg/injection, schedule: Q#A X014 (ip), vehicle: carboxymethylcellulose (CMC)): 83 % of control; T/C (dose: 6.25 mg/kg/injection, schedule: Q#A X014 (ip), vehicle: carboxymethylcellulose (CMC)): 100 % of control; T/C (dose: 6.3 mg/kg/injection, schedule: Q#A X014 (ip), vehicle: carboxymethylcellulose (CMC)): 83 % of control; T/C (dose: 9.5 mg/kg/injection, schedule: Q#A X014 (ip), vehicle: carboxymethylcellulose (CMC)): 48 % of control; T/C (dose: 12.5 mg/kg/injection, schedule: Q#A X014 (ip), vehicle: carboxymethylcellulose (CMC)): 90 % of control; T/C (dose: 12.66 mg/kg/injection, schedule: Q#A X014 (ip), vehicle: carboxymethylcellulose (CMC)): 39 % of control; T/C (dose: 15.2 mg/kg/injection, schedule: Q01DX007 (ip), vehicle: carboxymethylcellulose (CMC)): 73 % of control and 89 % of control; T/C (dose: 19.0 mg/kg/injection, schedule: Q#A X014 (ip), vehicle: carboxymethylcellulose (CMC)): 2 % of control; T/C (dose: 25.0 mg/kg/injection, schedule: Q#A X014 (ip), vehicle: carboxymethylcellulose (CMC)): 25 % of control; T/C (dose: 25.3 mg/kg/injection, schedule: Q01DX007 (ip), vehicle: carboxymethylcellulose (CMC)): 76 % of control; T/C (dose: 25.33 mg/kg/injection, schedule: Q01DX007 (ip), vehicle: carboxymethylcellulose (CMC)): 53 % of control

With `O=c1[nH]c(=O)c2n[nH]nc2[nH]1` as the compound, how does the T/C (dose: 0.25 mg/kg/injection, schedule: Q#A X014 (ip), vehicle: carboxymethylcellulose (CMC)) read?
Its T/C is 122 % of control.

And the T/C (dose: 0.5 mg/kg/injection, schedule: Q#A X014 (ip), vehicle: carboxymethylcellulose (CMC))?
Its T/C is 102 % of control.

What about the T/C (dose: 2.0 mg/kg/injection, schedule: Q#A X014 (ip), vehicle: carboxymethylcellulose (CMC)) of the same compound?
Its T/C is 114 % of control.

And the T/C (dose: 86.28 mg/kg/injection, schedule: Q01DX007 (ip), vehicle: carboxymethylcellulose (CMC))?
The T/C was 68 % of control.

What about the T/C (dose: 172.57 mg/kg/injection, schedule: Q01DX007 (ip), vehicle: carboxymethylcellulose (CMC)) of the same compound?
Its T/C is 49 % of control.

What about the T/C (dose: 345.15 mg/kg/injection, schedule: Q01DX007 (ip), vehicle: carboxymethylcellulose (CMC)) of the same compound?
The T/C was 102 % of control.

What about the T/C (dose: 690.3 mg/kg/injection, schedule: Q01DX007 (ip), vehicle: carboxymethylcellulose (CMC)) of the same compound?
The T/C was 51 % of control.

Which T/C (dose: 1.1 mg/kg/injection, schedule: Q#A X014 (sc), vehicle: steriod suspending solution) does the source give for `CC1(C)O[C@@H]2C[C@H]3[C@@H]4CCC5=CC(=O)C=C[C@]5(C)[C@@]4(F)[C@@H](O)C[C@]3(C)[C@]2(C(=O)CO)O1` here?
The T/C was 41 % of control and 57 % of control.

And the T/C (dose: 1.65 mg/kg/injection, schedule: Q#A X014 (sc), vehicle: steriod suspending solution)?
Its T/C is 33 % of control and 34 % of control.

What about the T/C (dose: 2.5 mg/kg/injection, schedule: Q#A X014 (sc), vehicle: steriod suspending solution) of the same compound?
The T/C was 20 % of control and 26 % of control.

What about the T/C (dose: 3.75 mg/kg/injection, schedule: Q#A X014 (sc), vehicle: steriod suspending solution) of the same compound?
The T/C was 22 % of control.

`Clc1ccc2c(c1)Cc1cc(N=Cc3ccccc3Cl)ccc1-2` was tested. Which T/C (dose: 42.0 mg/kg/injection, schedule: Q01DX007 (ip), vehicle: other) did it give?
The T/C was 77 % of control.

What about the T/C (dose: 64.0 mg/kg/injection, schedule: Q01DX007 (ip), vehicle: other) of the same compound?
The T/C was 108 % of control.

And the T/C (dose: 66.0 mg/kg/injection, schedule: Q01DX007 (ip), vehicle: saline)?
The T/C was 57 % of control.

What about the T/C (dose: 99.0 mg/kg/injection, schedule: Q01DX007 (ip), vehicle: saline) of the same compound?
Its T/C is 52 % of control.

What about the T/C (dose: 148.0 mg/kg/injection, schedule: Q01DX007 (ip), vehicle: saline) of the same compound?
Its T/C is 38 % of control.

What about the T/C (dose: 222.0 mg/kg/injection, schedule: Q01DX007 (ip), vehicle: other) of the same compound?
The T/C was 42 % of control and 46 % of control.

And the T/C (dose: 222.0 mg/kg/injection, schedule: Q01DX007 (ip), vehicle: saline)?
Its T/C is 31 % of control.

And the T/C [1]?
Its T/C is 20 % of control and 40 % of control.

What about the T/C (dose: 492.0 mg/kg/injection, schedule: Q01DX007 (ip), vehicle: carboxymethylcellulose (CMC)) of the same compound?
Its T/C is 40 % of control.

And the T/C [2]?
Its T/C is 22 % of control.

And the T/C (dose: 750.0 mg/kg/injection, schedule: Q01DX007 (ip), vehicle: carboxymethylcellulose (CMC))?
The T/C was 31 % of control.

What about the T/C [3] of the same compound?
The T/C was 20 % of control.

Which results are given for `COC(=O)c1cccc2c[n+]3c(cc12)-c1[nH]c2cc(OC)ccc2c1CC3`?
T/C (dose: 10.0 mg/kg/injection, schedule: Q01DX007 (ip), vehicle: other): 70 % of control; T/C [4]: 73 % of control; T/C [5]: 74 % of control

`COC(=O)C1=COC(C)C2CN3CCc4c([nH]c5cc(OC)ccc45)C3CC12` (stereo not drawn) was tested. Which T/C [4] did it give?
Its T/C is 91 % of control.

And the T/C (dose: 100.0 mg/kg/injection, schedule: Q01DX007 (ip), vehicle: other)?
The T/C was 89 % of control.

And the T/C [5]?
The T/C was 75 % of control.

`C1CN1c1nc(N2CC2)nc(N2CC2)n1` was tested. Which T/C (dose: 85.0 micrograms/kg/injection, schedule: Q01DX007 (ip), vehicle: carboxymethylcellulose (CMC)) did it give?
Its T/C is 111 % of control.

And the T/C (dose: 170.0 micrograms/kg/injection, schedule: Q01DX007 (ip), vehicle: carboxymethylcellulose (CMC))?
The T/C was 95 % of control.

What about the T/C (dose: 340.0 micrograms/kg/injection, schedule: Q01DX007 (ip), vehicle: carboxymethylcellulose (CMC)) of the same compound?
The T/C was 119 % of control.

And the T/C (dose: 680.0 micrograms/kg/injection, schedule: Q01DX007 (ip), vehicle: carboxymethylcellulose (CMC))?
Its T/C is 124 % of control.

What does the source list for `CC(=O)Nc1c(Cl)c(Cl)c2c(c1Cl)Cc1cc(F)ccc1-2`?
T/C (dose: 62.5 mg/kg/injection, schedule: Q01DX007 (ip), vehicle: saline): 78 % of control; T/C (dose: 111.0 mg/kg/injection, schedule: Q01DX007 (ip), vehicle: other): 24 % of control; T/C (dose: 111.0 mg/kg/injection, schedule: Q#A X014 (ip), vehicle: saline): 31 % of control and 34 % of control; T/C (dose: 125.0 mg/kg/injection, schedule: Q01DX007 (ip), vehicle: saline): 81 % of control; T/C (dose: 166.5 mg/kg/injection, schedule: Q#A X014 (ip), vehicle: saline): 28 % of control and 31 % of control; T/C (dose: 250.0 mg/kg/injection, schedule: Q#A X014 (ip), vehicle: saline): 18 % of control and 35 % of control; T/C [1]: 36 % of control; T/C (dose: 375.0 mg/kg/injection, schedule: Q#A X014 (ip), vehicle: saline): 21 % of control; T/C [2]: 39 % of control; T/C [3]: 32 % of control

Which T/C (dose: 3.13 mg/kg/injection, schedule: Q01DX007 (ip), vehicle: saline) does the source give for `COc1ccc(C[C@H]2NC[C@H](O)[C@H]2OC(C)=O)cc1` here?
Its T/C is 65 % of control.

What about the T/C (dose: 6.25 mg/kg/injection, schedule: Q01DX007 (ip), vehicle: saline) of the same compound?
Its T/C is 69 % of control.

What about the T/C (dose: 12.5 mg/kg/injection, schedule: Q01DX007 (ip), vehicle: saline) of the same compound?
The T/C was 58 % of control.

And the T/C (dose: 25.0 mg/kg/injection, schedule: Q01DX007 (ip), vehicle: saline)?
Its T/C is 56 % of control and 66 % of control.

And the T/C (dose: 50.0 mg/kg/injection, schedule: Q01DX007 (ip), vehicle: saline)?
Its T/C is 108 % of control.

And the T/C (dose: 100.0 mg/kg/injection, schedule: Q01DX007 (ip), vehicle: saline)?
Its T/C is 104 % of control.

Which results are given for `COC(=O)c1[nH]c(=O)[nH]c(=O)c1F`?
T/C (dose: 4.5 mg/kg/injection, schedule: Q01DX007 (ip), vehicle: carboxymethylcellulose (CMC)): 78 % of control; T/C (dose: 9.0 mg/kg/injection, schedule: Q01DX007 (ip), vehicle: carboxymethylcellulose (CMC)): 44 % of control and 55 % of control; T/C (dose: 14.0 mg/kg/injection, schedule: Q01DX007 (ip), vehicle: carboxymethylcellulose (CMC)): 39 % of control and 51 % of control and 54 % of control; T/C (dose: 21.0 mg/kg/injection, schedule: Q01DX007 (ip), vehicle: carboxymethylcellulose (CMC)): 26 % of control; T/C (dose: 31.0 mg/kg/injection, schedule: Q01DX007 (ip), vehicle: carboxymethylcellulose (CMC)): 10 % of control and 14 % of control; T/C (dose: 47.0 mg/kg/injection, schedule: Q01DX007 (ip), vehicle: carboxymethylcellulose (CMC)): 5 % of control and 7 % of control and 12 % of control

With `C[C@]12CCC(=O)C=C1CC[C@@H]1[C@@H]2[C@@H](O)C[C@@]2(C)[C@H]1CC[C@]2(O)C(=O)CF` as the compound, how does the T/C (dose: 25.0 mg/kg/injection, schedule: Q#A X014 (sc), vehicle: steriod suspending solution) read?
The T/C was 55 % of control.

And the T/C (dose: 125.0 mg/kg/injection, schedule: Q#A X014 (sc), vehicle: steriod suspending solution)?
The T/C was 43 % of control.

What about the T/C (dose: 148.0 mg/kg/injection, schedule: Q01DX007 (sc), vehicle: steriod suspending solution) of the same compound?
The T/C was 36 % of control.

What about the T/C (dose: 222.0 mg/kg/injection, schedule: Q01DX007 (sc), vehicle: saline) of the same compound?
Its T/C is 26 % of control.

What about the T/C (dose: 222.0 mg/kg/injection, schedule: Q01DX007 (sc), vehicle: steriod suspending solution) of the same compound?
Its T/C is 19 % of control.

What about the T/C (dose: 250.0 mg/kg/injection, schedule: Q#A X014 (sc), vehicle: steriod suspending solution) of the same compound?
Its T/C is 43 % of control.

And the T/C (dose: 333.0 mg/kg/injection, schedule: Q01DX007 (sc), vehicle: saline)?
Its T/C is 25 % of control.

What about the T/C (dose: 500.0 mg/kg/injection, schedule: Q01DX007 (sc), vehicle: saline) of the same compound?
The T/C was 21 % of control.

What about the T/C (dose: 750.0 mg/kg/injection, schedule: Q01DX007 (sc), vehicle: saline) of the same compound?
The T/C was 20 % of control.

What about the T/C (dose: 1125.0 mg/kg/injection, schedule: Q01DX007 (sc), vehicle: steriod suspending solution) of the same compound?
The T/C was 13 % of control.

For `Nc1nc(SC2CCCCC2)c2[nH]cnc2n1`, which T/C (dose: 120.0 mg/kg/injection, schedule: Q01DX007 (ip), vehicle: carboxymethylcellulose (CMC)) is on record?
The T/C was 89 % of control.

And the T/C (dose: 240.0 mg/kg/injection, schedule: Q01DX007 (ip), vehicle: carboxymethylcellulose (CMC))?
The T/C was 33 % of control.
